From PubChem BioAssay (NCI)
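In this assay, cells in 96-well plates receive the compound at five concentrations for 48 hours. Endpoints are linearly interpolated between the surrounding concentrations. Here, GI50 denotes the concentration required for 50% inhibition of growth. Definition used: TGI = concentration required for complete inhibition of growth.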

Test system: M14 melanoma
Assay: NCI anticancer screen, dose series, 48 h

Q: Which GI50 does the source give for `O=C(Nc1cccc(-n2cc(-c3ccncc3)c(-c3ccc(Cl)c(O)c3)n2)c1)c1ccc(N2CCOCC2)c(C(F)(F)F)c1` here?
A: 1.63 µM

Q: What about the TGI of the same compound?
A: 9.1 µM

Q: Which results are given for `COc1cccc2c1ccc1nc3cccc(C(=O)N[C@H](C)CN(C)C)c3nc12`?
A: GI50: 0.138 µM; TGI: 0.339 µM

Q: With `COc1ccc(/C=C/C(=O)c2ccc(O)c(CN3CCN(c4cc5c(cc4F)c(=O)c(C(=O)O)cn5C4CC4)CC3)c2)cc1` as the compound, how does the GI50 read?
A: 1.13 µM

Q: And the TGI?
A: > 100 µM

Q: With `NC(=O)c1ccc(I)c(N=O)c1` as the compound, how does the GI50 read?
A: 30.5 µM

Q: What about the TGI of the same compound?
A: 83.1 µM

Q: With `COc1ccc2c(=O)cc(-c3ccncc3)oc2c1OC` as the compound, how does the TGI read?
A: 39 µM

Q: For `CC(=O)C(=Cc1ccc(C=C(C(C)=O)C(C)=O)cc1)C(C)=O`, which TGI is on record?
A: 3.59 µM

Q: `COC(=O)c1ccccc1OCc1cc(=O)oc2ccc(C)cc12` was tested. Which TGI did it give?
A: > 100 µM

Q: `COc1ccc(-c2nc(-c3ccccc3)c(-c3ccccc3)[nH]2)cc1OC1CCCC1` was tested. Which GI50 did it give?
A: > 100 µM

Q: And the TGI?
A: > 100 µM

Q: How did the TGI turn out when `O=C(O)c1cc2ccc3ccccc3c2oc1=O` was run?
A: > 100 µM

Q: How did the TGI turn out when `O=[N+]([O-])c1ccc2c(c1)Cc1cc(N=Cc3ccc4c(c3)OCO4)ccc1-2` was run?
A: > 100 µM

Q: For `COC(=O)[C@@]12OC[C@]34[C@H]([C@@H](O)[C@@H]1O)[C@@]1(C)[C@H](O)C(=O)C=C(C)[C@@H]1C[C@H]3OC(=O)C(OC(C)=O)[C@@H]24` (stereo not given in full), which GI50 is on record?
A: 0.0261 µM

Q: And the TGI?
A: 0.0785 µM

Test system: COLO 205 colon
Assay: NCI anticancer screen, dose series, 48 h

Q: Which TGI does the source give for `COc1cc2ccccc2oc1=O` here?
A: > 100 µM

Q: `Nc1nc(N)c2nc(CNc3ccc(C(=O)NC(CC(=O)O)C(=O)O)cc3)cnc2n1` (stereo not given) was tested. Which GI50 did it give?
A: 31 µM

Q: And the TGI?
A: > 100 µM

Q: Which GI50 does the source give for `CC(=O)OC[C@]12CC[C@@H](C(=O)CBr)[C@@H]1[C@H]1CC[C@@H]3[C@@]4(C)CCCNC(C)(C)[C@@H]4CC[C@@]3(C)[C@]1(C)CC2` here?
A: 3.92 µM

Q: What about the TGI of the same compound?
A: 17.2 µM

Q: With `COc1cc2c3c(n(CCCCN)c(=O)c2cc1OC)-c1cc2c(cc1C3=O)OCO2` as the compound, how does the GI50 read?
A: 1.04 µM

Q: And the TGI?
A: 6.17 µM

Q: Which results are given for `N#CCCN(CCCN(CCCN(C(=O)Nc1ccccc1)c1ccccc1)C(=O)Nc1ccccc1)C(=O)Nc1ccccc1`?
A: GI50: > 100 µM; TGI: > 100 µM

Q: Which GI50 does the source give for `C=CCC1(O)c2ccccc2C(=O)c2c(NCCN(CC(=O)OCC)CC(=O)OCC)cccc21` (stereo not given) here?
A: > 100 µM

Q: What about the TGI of the same compound?
A: > 100 µM

Q: How did the GI50 turn out when `COc1cccc(-n2nc(C)c3c(N/N=C(\C)c4ccncc4)ncnc32)c1` was run?
A: > 25 µM

Q: And the TGI?
A: > 25 µM

Q: Which results are given for `NC(=O)c1ccccc1Nc1ccc2nnc(-c3ccncc3)n2n1`?
A: GI50: 11.6 µM; TGI: 26.7 µM

Q: `CCn1cnc(C[C@H](NC(=O)[C@@H](NC(=O)Nc2cc(C(F)(F)F)cc(C(F)(F)F)c2)C(C)C)C(=O)OC)c1` was tested. Which GI50 did it give?
A: 2.61 µM

Q: And the TGI?
A: 7.07 µM

Q: Which results are given for `O=C(Nc1cccc(-n2cc(-c3ccncc3)c(-c3ccc(Cl)c(O)c3)n2)c1)c1ccc(N2CCOCC2)c(C(F)(F)F)c1`?
A: GI50: > 50 µM; TGI: > 50 µM

Q: Which GI50 does the source give for `COc1cccc2c1ccc1nc3cccc(C(=O)N[C@H](C)CN(C)C)c3nc12` here?
A: 0.0646 µM

Q: And the TGI?
A: 0.282 µM

Q: With `COc1ccc(/C=C/C(=O)c2ccc(O)c(CN3CCN(c4cc5c(cc4F)c(=O)c(C(=O)O)cn5C4CC4)CC3)c2)cc1` as the compound, how does the GI50 read?
A: 11.8 µM

Q: What about the TGI of the same compound?
A: 33.4 µM

Q: How did the GI50 turn out when `NC(=O)c1ccc(I)c(N=O)c1` was run?
A: 21.7 µM

Q: And the TGI?
A: 44.3 µM

Q: With `COc1ccc2c(=O)cc(-c3ccncc3)oc2c1OC` as the compound, how does the TGI read?
A: 30.8 µM

Q: For `CC(=O)C(=Cc1ccc(C=C(C(C)=O)C(C)=O)cc1)C(C)=O`, which TGI is on record?
A: 3.33 µM

Q: Which TGI does the source give for `COC(=O)c1ccccc1OCc1cc(=O)oc2ccc(C)cc12` here?
A: > 100 µM

Q: With `COc1ccc(-c2nc(-c3ccccc3)c(-c3ccccc3)[nH]2)cc1OC1CCCC1` as the compound, how does the GI50 read?
A: > 100 µM

Q: And the TGI?
A: > 100 µM

Q: With `O=C(O)c1cc2ccc3ccccc3c2oc1=O` as the compound, how does the TGI read?
A: > 100 µM

Q: How did the TGI turn out when `O=[N+]([O-])c1ccc2c(c1)Cc1cc(N=Cc3ccc4c(c3)OCO4)ccc1-2` was run?
A: > 100 µM

Q: Which GI50 does the source give for `COC(=O)[C@@]12OC[C@]34[C@H]([C@@H](O)[C@@H]1O)[C@@]1(C)[C@H](O)C(=O)C=C(C)[C@@H]1C[C@H]3OC(=O)C(OC(C)=O)[C@@H]24` (stereo not given in full) here?
A: 0.0408 µM

Q: What about the TGI of the same compound?
A: 0.178 µM

Test system: HOP-62 NSCLC
Assay: NCI anticancer screen, dose series, 48 h

Q: Which TGI does the source give for `COc1cc2ccccc2oc1=O` here?
A: > 100 µM

Q: How did the GI50 turn out when `Nc1nc(N)c2nc(CNc3ccc(C(=O)NC(CC(=O)O)C(=O)O)cc3)cnc2n1` (stereo not given) was run?
A: 6.4 µM

Q: And the TGI?
A: > 100 µM

Q: Which GI50 does the source give for `CC(=O)OC[C@]12CC[C@@H](C(=O)CBr)[C@@H]1[C@H]1CC[C@@H]3[C@@]4(C)CCCNC(C)(C)[C@@H]4CC[C@@]3(C)[C@]1(C)CC2` here?
A: 14.3 µM

Q: What about the TGI of the same compound?
A: 28.2 µM

Q: `COc1cc2c3c(n(CCCCN)c(=O)c2cc1OC)-c1cc2c(cc1C3=O)OCO2` was tested. Which GI50 did it give?
A: 0.322 µM

Q: And the TGI?
A: 1.21 µM

Q: How did the GI50 turn out when `N#CCCN(CCCN(CCCN(C(=O)Nc1ccccc1)c1ccccc1)C(=O)Nc1ccccc1)C(=O)Nc1ccccc1` was run?
A: > 100 µM

Q: What about the TGI of the same compound?
A: > 100 µM

Q: How did the GI50 turn out when `C=CCC1(O)c2ccccc2C(=O)c2c(NCCN(CC(=O)OCC)CC(=O)OCC)cccc21` (stereo not given) was run?
A: > 100 µM

Q: And the TGI?
A: > 100 µM

Q: With `COc1cccc(-n2nc(C)c3c(N/N=C(\C)c4ccncc4)ncnc32)c1` as the compound, how does the GI50 read?
A: > 25 µM

Q: What about the TGI of the same compound?
A: > 25 µM

Q: Which GI50 does the source give for `NC(=O)c1ccccc1Nc1ccc2nnc(-c3ccncc3)n2n1` here?
A: 9.93 µM

Q: And the TGI?
A: 22.4 µM

Q: How did the GI50 turn out when `CCn1cnc(C[C@H](NC(=O)[C@@H](NC(=O)Nc2cc(C(F)(F)F)cc(C(F)(F)F)c2)C(C)C)C(=O)OC)c1` was run?
A: 1.87 µM

Q: And the TGI?
A: 3.65 µM

Q: What does the source list for `O=C(Nc1cccc(-n2cc(-c3ccncc3)c(-c3ccc(Cl)c(O)c3)n2)c1)c1ccc(N2CCOCC2)c(C(F)(F)F)c1`?
A: GI50: 9.38 µM; TGI: > 50 µM

Q: Which GI50 does the source give for `COc1cccc2c1ccc1nc3cccc(C(=O)N[C@H](C)CN(C)C)c3nc12` here?
A: 0.084 µM

Q: What about the TGI of the same compound?
A: 0.787 µM

Q: With `COc1ccc(/C=C/C(=O)c2ccc(O)c(CN3CCN(c4cc5c(cc4F)c(=O)c(C(=O)O)cn5C4CC4)CC3)c2)cc1` as the compound, how does the GI50 read?
A: 1.97 µM

Q: And the TGI?
A: > 100 µM

Q: Which GI50 does the source give for `NC(=O)c1ccc(I)c(N=O)c1` here?
A: 57.6 µM

Q: And the TGI?
A: > 100 µM

Q: Which TGI does the source give for `COc1ccc2c(=O)cc(-c3ccncc3)oc2c1OC` here?
A: > 100 µM

Q: With `CC(=O)C(=Cc1ccc(C=C(C(C)=O)C(C)=O)cc1)C(C)=O` as the compound, how does the TGI read?
A: 6.38 µM

Q: With `COC(=O)c1ccccc1OCc1cc(=O)oc2ccc(C)cc12` as the compound, how does the TGI read?
A: > 57.5 µM

Q: What does the source list for `COc1ccc(-c2nc(-c3ccccc3)c(-c3ccccc3)[nH]2)cc1OC1CCCC1`?
A: GI50: > 100 µM; TGI: > 100 µM

Q: How did the TGI turn out when `O=C(O)c1cc2ccc3ccccc3c2oc1=O` was run?
A: > 100 µM

Q: `O=[N+]([O-])c1ccc2c(c1)Cc1cc(N=Cc3ccc4c(c3)OCO4)ccc1-2` was tested. Which TGI did it give?
A: > 100 µM

Q: Which GI50 does the source give for `COC(=O)[C@@]12OC[C@]34[C@H]([C@@H](O)[C@@H]1O)[C@@]1(C)[C@H](O)C(=O)C=C(C)[C@@H]1C[C@H]3OC(=O)C(OC(C)=O)[C@@H]24` (stereo not given in full) here?
A: 0.0294 µM

Q: And the TGI?
A: 0.156 µM
